Measurements as given in patent publication US10300058B2, “Tyrosine kinase inhibitor and uses thereof” (Xuanzhu Pharma Co., Ltd., priority 2014, dated 2019).

Assays:
[1] = tested on: H1975 cell (EGFR-T790M/L858R double mutation); experiment: In vitro cytologic activity, Celltiter-Glo, H1975 cells; type: cell-based, human; settings: for IC50: Homo sapiens, NCI-H1975, 72 h, 72 h, Celltiter-Glo; for Selectivity (A431/H1975): ratio of IC50
Protocol: (§1) 1.1 Preparation of Cell Suspension
(§2) Culture medium was removed from culture bottle;
(§3) PBS was added to wash the cells; • pancreatin was added for digestion, and the cells were collected by centrifugation; • the cells were resuspended in a culture medium containing 10% fetal bovine serum, counted and adjusted to a concentration of 2×10^4/mL or 3×10^4/mL (cell viability must be greater than 90%); • the cell suspension was added to a 96-well plate, at 100 μL for each well, i.e., 2000/well for H1975 cell; 3000/well for A431 cell; and • the cells were cultured at 37° C. in 5% CO2 incubator overnight.
(§4) Dilution of a compound in DMSO (or water for injection) • (1) The compound was 5-fold diluted with DMSO from 10 mM to 2 mM, and then 4-fold diluted from 2 mM, to get 10 concentrations; • High control (HC, control without compound inhibition): 0.5% DMSO; • Low control (LC, control with compound inhibition): 1000 nM.
(§5) i. To each well, 99 μL growth medium containing 10% FBS was added, and then 1 μL diluted compound was added, the total volume of the well was […], and the final concentration of the compound was measured.
(§6) The test plate was left at room temperature, and equilibrated for 30 min. 80 μL culture medium was discarded. 60 μL CTG reagent (Celltiter-Glo kit) was added, and shaked for 2 min in a fast shaker, and was placed at room temperature for 10 min. The values were read by Envision instrument.

wild-type EGFR (WT EGFR) = wild-type EGFR (WT EGFR) (Homo sapiens (Human), UniProt P00533); experiment: Mobility Shift Assay, in vitro enzyme-inhibiting activity, wild-type EGFR; type: biochemical; settings: Km ATP
Protocol: (§7) 1. Preparation of Reagents
(§8) 2. Preparation of a Compound Solution
(§9) (1) To the second well of a 96-well plate, 5 μL 10 mM compound (dissolved in DMSO) was added, and 95 μL 100% DMSO was added to prepare 100 μL 0.5 mM compound.
(§10) (2) To other wells, 60 μL 100% DMSO was added. 20 μL compound from the second well was added to the third well, and 4-fold dilution was further performed to get 10 diluted concentrations.
(§11) (3) To the first well and the twelfth well of the 96-well plate, 100 μL 100% DMSO was separately added, and the two wells were used as control wells.
(§12) (4) 10 μL from each well of the 96-well plate was added to another 96-well plate, and 90 μL 1-fold kinase buffer was added.
(§13) (5) 5 μL from the 96-well plate was added to another 384-well plate, for example, transferred from A1 well of the 96-well plate to A1 and A2 wells of the 384-well plate, and transferred from A2 well of the 96-well plate to A3 and A4 wells of the 384-well plate, and so on.
(§14) To 384-well plate, 10 μL 2.5-fold enzyme solution was added, and incubated at room temperature for 10 min.
(§15) (5) Kinase reaction and stop
(§16) After incubation at 28° C. for a period of time (depending on kinase), 25 μL stop solution was added.
(§17) 4. Data on percent conversion was read by Caliper.
(§18) (1) Data on enzyme activity was obtained by Caliper program;
(§19) (2) Inhibition rate of enzyme activity was calculated from the data on enzyme activity by the following formula: Inhibition rate(%)=(maximal value−the measured value of a test compound)/(maximal value-minimal value)×100,
(§20) wherein, the maximal value represents the measured value of DMSO control; and the minimal value represents the measured value of blank control.
(§21) (3) Calculation of IC50 value by XLFit excel.

[2] = tested on: A431 cell (wild-type EGFR gene); experiment: In vitro cytologic activity, Celltiter-Glo, A431 cells; type: cell-based; settings: Homo sapiens, A-431, 72 h
Protocol: as §1, §2, §3, §4, §5, §6

EGFR T790M = EGFR T790M (Homo sapiens (Human), UniProt P00533, T790M); experiment: Mobility Shift Assay, in vitro enzyme-inhibiting activity, EGFR T790M; type: biochemical; settings: for IC50: Km ATP; for Selectivity (WT/T790M): ratio of IC50
Protocol: as §7, §8, §9, §10, §11, §12, §13, §14, §15, §16, §17, §18, §19, §20, §21

EGFR T790M-L858R = EGFR T790M-L858R (Homo sapiens (Human), UniProt P00533, L858R/T790M); experiment: Mobility Shift Assay, in vitro enzyme-inhibiting activity, EGFR T790M-L858R; type: biochemical; settings: for IC50: Km ATP; for Selectivity WT/T790M-L858R: ratio of IC50
Protocol: as §7, §8, §9, §10, §11, §12, §13, §14, §15, §16, §17, §18, §19, §20, §21

EGFR L858R = EGFR L858R (Homo sapiens (Human), UniProt P00533, L858R); experiment: Mobility Shift Assay, in vitro enzyme-inhibiting activity, EGFR L858R; type: biochemical; settings: for IC50: Km ATP; for Selectivity WT/L858R: ratio of IC50
Protocol: as §7, §8, §9, §10, §11, §12, §13, §14, §15, §16, §17, §18, §19, §20, §21

EGFR (d746-750) = EGFR (d746-750) (Homo sapiens (Human), UniProt P00533, DEL746-750); experiment: Mobility Shift Assay, in vitro enzyme-inhibiting activity, EGFR (d746-750); type: biochemical; settings: for IC50: Km ATP; for Selectivity WT/d746-750: ratio of IC50
Protocol: as §7, §8, §9, §10, §11, §12, §13, §14, §15, §16, §17, §18, §19, §20, §21

Chain of EGFR T790M-L858R (P00533 25-1210 T790M/L858R): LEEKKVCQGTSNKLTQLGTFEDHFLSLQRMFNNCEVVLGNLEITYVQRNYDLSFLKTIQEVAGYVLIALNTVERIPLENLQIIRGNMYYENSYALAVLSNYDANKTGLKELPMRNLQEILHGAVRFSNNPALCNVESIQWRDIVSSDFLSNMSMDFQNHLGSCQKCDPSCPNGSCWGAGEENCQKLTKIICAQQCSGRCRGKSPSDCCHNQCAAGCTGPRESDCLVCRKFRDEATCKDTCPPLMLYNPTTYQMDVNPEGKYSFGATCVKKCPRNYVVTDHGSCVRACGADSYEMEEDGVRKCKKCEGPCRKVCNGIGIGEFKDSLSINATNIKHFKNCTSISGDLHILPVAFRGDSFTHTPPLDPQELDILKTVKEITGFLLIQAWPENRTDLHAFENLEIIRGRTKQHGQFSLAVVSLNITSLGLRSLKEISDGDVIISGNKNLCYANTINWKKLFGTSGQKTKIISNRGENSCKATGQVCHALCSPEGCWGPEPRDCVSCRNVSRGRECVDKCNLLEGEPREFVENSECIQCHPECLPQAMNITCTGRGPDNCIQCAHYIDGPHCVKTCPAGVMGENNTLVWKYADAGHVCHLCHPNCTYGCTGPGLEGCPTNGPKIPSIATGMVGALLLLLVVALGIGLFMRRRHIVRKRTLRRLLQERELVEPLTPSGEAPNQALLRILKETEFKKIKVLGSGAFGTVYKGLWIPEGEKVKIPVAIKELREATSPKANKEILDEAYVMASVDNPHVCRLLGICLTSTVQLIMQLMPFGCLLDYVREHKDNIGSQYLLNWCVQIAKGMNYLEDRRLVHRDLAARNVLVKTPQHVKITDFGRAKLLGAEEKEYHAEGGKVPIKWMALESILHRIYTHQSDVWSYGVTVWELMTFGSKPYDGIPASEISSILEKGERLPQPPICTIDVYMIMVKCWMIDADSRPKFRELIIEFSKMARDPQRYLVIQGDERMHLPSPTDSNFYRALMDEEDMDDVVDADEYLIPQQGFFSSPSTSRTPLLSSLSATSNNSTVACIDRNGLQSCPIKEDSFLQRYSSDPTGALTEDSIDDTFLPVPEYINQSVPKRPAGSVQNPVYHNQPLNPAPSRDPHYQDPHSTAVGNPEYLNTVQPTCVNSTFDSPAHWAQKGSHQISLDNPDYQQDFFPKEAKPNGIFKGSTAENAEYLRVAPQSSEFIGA
Chain of EGFR L858R (P00533 25-1210 L858R): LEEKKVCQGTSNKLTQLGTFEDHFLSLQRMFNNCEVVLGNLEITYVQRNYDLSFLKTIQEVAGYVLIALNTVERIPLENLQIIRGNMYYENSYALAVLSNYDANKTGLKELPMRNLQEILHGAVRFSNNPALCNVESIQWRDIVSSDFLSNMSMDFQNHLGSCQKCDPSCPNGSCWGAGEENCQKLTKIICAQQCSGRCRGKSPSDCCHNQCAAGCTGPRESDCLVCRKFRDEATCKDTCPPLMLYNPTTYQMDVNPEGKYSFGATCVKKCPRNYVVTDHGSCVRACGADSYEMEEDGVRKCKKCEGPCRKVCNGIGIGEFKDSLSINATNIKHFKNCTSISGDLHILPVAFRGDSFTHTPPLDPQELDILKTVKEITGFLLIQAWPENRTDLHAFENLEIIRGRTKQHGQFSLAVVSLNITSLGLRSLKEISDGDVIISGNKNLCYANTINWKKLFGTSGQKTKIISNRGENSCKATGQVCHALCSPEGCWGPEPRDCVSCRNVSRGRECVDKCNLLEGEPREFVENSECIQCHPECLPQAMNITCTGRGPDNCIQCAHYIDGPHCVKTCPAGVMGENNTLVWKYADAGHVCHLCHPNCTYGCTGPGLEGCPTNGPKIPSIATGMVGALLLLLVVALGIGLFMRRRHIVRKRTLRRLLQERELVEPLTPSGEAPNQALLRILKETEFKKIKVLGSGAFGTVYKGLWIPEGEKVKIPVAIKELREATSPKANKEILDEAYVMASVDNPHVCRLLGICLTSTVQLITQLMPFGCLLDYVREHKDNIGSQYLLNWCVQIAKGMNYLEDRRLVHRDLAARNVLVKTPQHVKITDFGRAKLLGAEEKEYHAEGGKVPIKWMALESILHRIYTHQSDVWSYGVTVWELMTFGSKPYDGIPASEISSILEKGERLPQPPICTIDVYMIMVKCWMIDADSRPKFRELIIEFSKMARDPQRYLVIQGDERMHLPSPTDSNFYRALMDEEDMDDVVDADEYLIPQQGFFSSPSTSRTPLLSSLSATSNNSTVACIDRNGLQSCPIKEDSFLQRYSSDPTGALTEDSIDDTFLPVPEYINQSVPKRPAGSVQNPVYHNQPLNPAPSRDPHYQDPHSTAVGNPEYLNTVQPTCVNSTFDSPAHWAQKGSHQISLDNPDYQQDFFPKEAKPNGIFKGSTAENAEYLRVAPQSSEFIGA
Chain of wild-type EGFR (WT EGFR) (P00533 25-1210): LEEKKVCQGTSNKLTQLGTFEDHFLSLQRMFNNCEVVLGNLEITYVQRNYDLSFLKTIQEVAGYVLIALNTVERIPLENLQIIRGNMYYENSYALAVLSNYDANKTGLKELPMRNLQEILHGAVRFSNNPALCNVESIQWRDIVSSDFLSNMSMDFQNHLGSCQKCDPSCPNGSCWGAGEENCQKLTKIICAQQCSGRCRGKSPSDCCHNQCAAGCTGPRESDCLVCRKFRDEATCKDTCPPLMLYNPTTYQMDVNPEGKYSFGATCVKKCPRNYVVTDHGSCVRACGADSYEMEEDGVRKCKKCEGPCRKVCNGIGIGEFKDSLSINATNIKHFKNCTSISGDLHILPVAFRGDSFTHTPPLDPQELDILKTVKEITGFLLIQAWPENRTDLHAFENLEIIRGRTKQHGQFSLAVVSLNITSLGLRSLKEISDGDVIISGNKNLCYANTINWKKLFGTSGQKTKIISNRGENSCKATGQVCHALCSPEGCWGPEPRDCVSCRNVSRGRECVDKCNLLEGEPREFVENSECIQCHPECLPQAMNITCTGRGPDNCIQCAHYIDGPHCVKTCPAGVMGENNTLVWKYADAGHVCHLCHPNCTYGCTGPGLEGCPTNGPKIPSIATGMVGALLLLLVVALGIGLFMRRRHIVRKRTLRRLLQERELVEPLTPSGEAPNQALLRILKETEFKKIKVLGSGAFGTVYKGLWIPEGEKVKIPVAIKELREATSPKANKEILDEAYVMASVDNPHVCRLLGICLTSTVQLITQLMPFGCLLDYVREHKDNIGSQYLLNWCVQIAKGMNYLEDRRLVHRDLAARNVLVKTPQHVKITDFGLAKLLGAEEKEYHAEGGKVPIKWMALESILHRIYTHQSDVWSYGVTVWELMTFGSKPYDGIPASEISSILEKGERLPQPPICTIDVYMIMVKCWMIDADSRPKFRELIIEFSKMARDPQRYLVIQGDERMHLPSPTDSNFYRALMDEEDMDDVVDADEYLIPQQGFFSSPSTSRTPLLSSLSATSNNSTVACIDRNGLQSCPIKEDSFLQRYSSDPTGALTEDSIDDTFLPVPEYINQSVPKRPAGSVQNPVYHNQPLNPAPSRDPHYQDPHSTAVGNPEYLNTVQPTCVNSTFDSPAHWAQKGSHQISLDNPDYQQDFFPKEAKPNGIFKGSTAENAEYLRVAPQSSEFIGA
Chain of EGFR T790M (P00533 25-1210 T790M): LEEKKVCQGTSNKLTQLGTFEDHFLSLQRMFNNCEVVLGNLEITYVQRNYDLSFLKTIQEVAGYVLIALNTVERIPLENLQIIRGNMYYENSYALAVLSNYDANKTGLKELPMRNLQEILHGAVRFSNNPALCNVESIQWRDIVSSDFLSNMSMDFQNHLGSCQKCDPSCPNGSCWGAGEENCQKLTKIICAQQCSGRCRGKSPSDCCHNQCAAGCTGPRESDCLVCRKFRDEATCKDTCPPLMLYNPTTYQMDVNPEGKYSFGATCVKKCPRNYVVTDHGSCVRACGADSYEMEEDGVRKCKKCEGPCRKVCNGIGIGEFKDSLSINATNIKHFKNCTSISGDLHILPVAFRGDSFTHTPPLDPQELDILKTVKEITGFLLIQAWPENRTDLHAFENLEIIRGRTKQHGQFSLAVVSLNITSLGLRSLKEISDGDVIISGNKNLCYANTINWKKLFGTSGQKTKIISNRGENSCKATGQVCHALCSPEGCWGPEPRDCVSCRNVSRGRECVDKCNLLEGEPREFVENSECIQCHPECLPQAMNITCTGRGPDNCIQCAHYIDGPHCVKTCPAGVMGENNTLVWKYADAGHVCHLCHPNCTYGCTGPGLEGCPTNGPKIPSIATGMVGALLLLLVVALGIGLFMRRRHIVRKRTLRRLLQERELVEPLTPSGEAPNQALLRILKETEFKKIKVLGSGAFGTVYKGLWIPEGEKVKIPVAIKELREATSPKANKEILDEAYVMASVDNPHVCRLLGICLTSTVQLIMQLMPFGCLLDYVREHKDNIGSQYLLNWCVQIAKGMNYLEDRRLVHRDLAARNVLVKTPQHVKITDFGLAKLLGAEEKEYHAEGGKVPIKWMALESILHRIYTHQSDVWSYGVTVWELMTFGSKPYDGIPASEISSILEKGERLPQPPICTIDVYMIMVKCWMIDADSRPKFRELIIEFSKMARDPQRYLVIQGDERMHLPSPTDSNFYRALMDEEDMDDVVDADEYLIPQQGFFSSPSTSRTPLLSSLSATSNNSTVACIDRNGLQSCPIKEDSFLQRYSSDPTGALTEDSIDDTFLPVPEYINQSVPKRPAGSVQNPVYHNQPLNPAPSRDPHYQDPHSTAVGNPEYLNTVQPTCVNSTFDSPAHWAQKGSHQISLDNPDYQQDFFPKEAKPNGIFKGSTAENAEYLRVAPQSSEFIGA

Compound	IC50 (wild-type EGFR (WT EGFR); Table 4, unit inferred) [nM]	IC50 (EGFR T790M; Table 4, unit inferred) [nM]	Selectivity (WT/T790M) (EGFR T790M; Table 4)	IC50 (wild-type EGFR (WT EGFR); Table 7) [nM]	IC50 (EGFR T790M-L858R; Table 7) [nM]	Selectivity WT/T790M-L858R (EGFR T790M-L858R; Table 7)	IC50 (EGFR T790M; Table 7) [nM]	Selectivity (WT/T790M) (EGFR T790M; Table 7)	IC50 (EGFR L858R; Table 7) [nM]	Selectivity WT/L858R (EGFR L858R; Table 7)	IC50 (EGFR (d746-750); Table 7) [nM]	Selectivity WT/d746-750 (EGFR (d746-750); Table 7)	also measured
C=CC(=O)Nc1cccc(Nc2nc(Nc3cc4c(cc3OC)CN(C(C)=O)CC4)ncc2C(F)(F)F)c1 [Compound 11, N-(3-((2-((2-acetyl-7-methoxy-1,2,3,4-tetrahydroisoquinolin-6-yl)amino)-5-(trifluoromethyl)pyrimidin-4-yl)amino)phenyl)acrylamide]	–	–	–	–	–	–	–	–	–	–	–	–	IC50 ([1]; Table 9): 179 nM; Selectivity (A431/H1975) ([1]; Table 9): 9.9; IC50 (wild-type EGFR (WT EGFR); Table 2): 640 nM; IC50 ([2]; Table 9): 1770 nM; IC50 (EGFR T790M; Table 2): 13 nM; Selectivity (WT/T790M) (EGFR T790M; Table 2): 49.2
C=CC(=O)Nc1cccc(Nc2nc(Nc3ccc(OC)c4c3CCN(C(C)=O)C4)ncc2C(F)(F)F)c1 [Compound 35, N-(3-((2-((2-acetyl-8-methoxy-1,2,3,4-tetrahydroisoquinoline-5-yl)amino)-5-(trifluoromethyl)pyrimidin-4-yl)amino)phenyl)acrylamide]	–	–	–	–	–	–	–	–	–	–	–	–	IC50 ([1]; Table 10, unit inferred): 266 nM; Selectivity (A431/H1975) ([1]; Table 10): 13.5; IC50 ([2]; Table 10, unit inferred): 3600 nM
C=CC(=O)Nc1cccc(Nc2nc(Nc3cccc4c3CCN(C(C)=O)C4)ncc2C(F)(F)F)c1 [Compound 37, N-(3-((2-((2-acetyl-1,2,3,4-tetrahydroisoquinoline-5-yl)amino)-5-(trifluoromethyl)pyrimidin-4-yl)amino)phenyl)acrylamide]	1280	9.9	129.7	–	–	–	–	–	–	–	–	–	–
C=CC(=O)Nc1cccc(Nc2nc(Nc3ccc(C4CCNC(=O)C4)cc3OC)ncc2C(F)(F)F)c1 (stereo not shown) [Compound 22, N-(3-((2-((2-methoxy-4-(2-oxopiperidin-4-yl)phenyl)amino)-5-(trifluoromethyl)pyrimidin-4-yl)amino)phenyl)acrylamide]	–	–	–	181	4.06	44.6	2.7	67.2	28.2	6.4	28.3	6.4	–
C=CC(=O)Nc1cccc(Nc2nc(Nc3ccc(N4C[C@H]5CN(C(C)=O)C[C@H]5C4)cc3OC)ncc2C(F)(F)F)c1 [Compound 9-1, N-(3-((2-((4-((cis)-5-acetylhexahydropyrrolo[3,4-c]pyrrol-2(1H)-yl)-2-methoxyphenyl)amino)-5-(trifluoromethyl)pyrimidin-4-yl)amino)phenyl)acrylamide]	–	–	–	560	12.6	44.5	9	62.2	119	4.7	92.7	6.0	–
C=CC(=O)Nc1cccc(Nc2nc(Nc3ccc4c(c3OC)CN(C(C)=O)CC4)ncc2C(F)(F)F)c1 [Compound 17, N-(3-((2-((2-acetyl-8-methoxy-1,2,3,4-tetrahydroisoquinoline-7-yl)amino)-5-(trifluoromethyl)pyrimidin-4-yl)amino)phenyl)acrylamide]	1370	16	85.6	–	–	–	–	–	–	–	–	–	–
C=CC(=O)Nc1cccc(Nc2nc(Nc3ccc(C4CCN(C(=O)CC)CC4)cc3OC)ncc2C(F)(F)F)c1 [Compound 24, N-(3-((2-((2-methoxy-4-(1-propionylpiperidin-4-yl)phenyl)amino)-5-(trifluoromethyl)pyrimidin-4-yl)amino)phenyl)acrylamide]	–	–	–	666	10.2	65.4	9.1	73.2	109	6.1	91.7	7.3	–
C=CC(=O)Nc1cccc(Nc2nc(Nc3ccc(C4CCN(C(C)=O)CC4)cc3OC)ncc2C(F)(F)F)n1 [Compound 4, N-(6-((2-((4-(1-acetylpiperidin-4-yl)-2-methoxyphenyl)amino)-5-(trifluoromethyl)pyrimidin-4-yl)amino)pyridin-2-yl)acrylamide]	–	–	–	423	5.2	81.3	7.2	58.8	82	5.2	40	10.6	IC50 (wild-type EGFR (WT EGFR); Table 3): 423 nM; IC50 (EGFR T790M; Table 3): 7.2 nM; Selectivity (WT/T790M) (EGFR T790M; Table 3): 58.8
C=CC(=O)Nc1cccc(Nc2nc(Nc3ccc(C4=CCN(C(C)=O)CC4)cc3OC)ncc2C(F)(F)F)c1 [Compound 3, N-(3-((2-((4-(1-acetyl-1,2,3,6-tetrahydropyridin-4-yl)-2-methoxyphenyl)amino)-5-(trifluoromethyl)pyrimidin-4-yl)amino)phenyl)acrylamide]	–	–	–	–	–	–	–	–	–	–	–	–	IC50 (wild-type EGFR (WT EGFR); Table 1): 699 nM; IC50 (wild-type EGFR (WT EGFR); Table 5): 733 nM; IC50 (EGFR T790M-L858R; Table 5): 6 nM; Selectivity WT/T790M-L858R (EGFR T790M-L858R; Table 5): 122.9; IC50 (EGFR T790M; Table 1): 4.7 nM; Selectivity (WT/T790M) (EGFR T790M; Table 1): 148.7; IC50 (EGFR L858R; Table 5): 154 nM; Selectivity WT/L858R (EGFR L858R; Table 5): 4.8; IC50 (EGFR (d746-750); Table 5): 51.4 nM; Selectivity WT/d746-750 (EGFR (d746-750); Table 5): 14.2
C=CC(=O)Nc1cccc(Nc2nc(Nc3ccc(N4CC5CCC(C4)N5C(C)=O)cc3OC)ncc2C(F)(F)F)c1 [Compound 7, N-(3-((2-((4-(8-acetyl-3,8-diazabicyclo[3.2.1]octan-3-yl)-2-methoxyphenyl)amino)-5-(trifluoromethyl)pyrimidin-4-yl)amino)phenyl)acrylamide]	332	6.2	53.5	–	–	–	–	–	–	–	–	–	–
C=CC(=O)Nc1cccc(Nc2nc(Nc3ccc(OC)c4c3CN(C(C)=O)C4)ncc2C(F)(F)F)c1 [Compound 36, N-(3-((2-((2-acetyl-7-methoxyisoindolin-4-yl)amino)-5-(trifluoromethyl)pyrimidin-4-yl)amino)phenyl)acrylamide]	–	–	–	–	–	–	–	–	–	–	–	–	IC50 ([1]; Table 10, unit inferred): 326 nM; Selectivity (A431/H1975) ([1]; Table 10): 21.5; IC50 ([2]; Table 10, unit inferred): 7000 nM
C=CC(=O)Nc1cccc(Nc2nc(Nc3ccc(C4CCN(CCF)C(=O)C4)cc3OC)ncc2C(F)(F)F)c1 (stereo not shown) [Compound 23, N-(3-((2-((4-(1-(2-fluoroethyl)-2-oxopiperidin-4-yl)-2-methoxyphenyl)amino)-5-(trifluoromethyl)pyrimidin-4-yl)amino)phenyl)acrylamide]	294	3.9	75.4	–	–	–	–	–	–	–	–	–	–
